Laboratory results as given in US11872222B2, “Uses” (NeRRe Therapeutics Limited, priority 2020, dated 2024).

How the values were obtained:
[1] = system: VILI mouse model of mechanical injury to the lungs; assay: VILI mouse model: bronchoalveolar lavage fluid (BAL) markers; format: in vivo; conditions: male C57/BL6 mice, oral 250 mg/kg pre-treatment, high tidal volume ventilation; FIG. 3
Description: (§1) Orvepitant was evaluated in a VILI mouse model of mechanical injury to the lungs. Male C57/BL6 mice were pre-treated with oral orvepitant (250 mg/kg) or vehicle control (10 ml/kg, 0.1% tween 80:0.5% hydroxypropyl methylcellulose [HPMC]), approximately 30 minutes before initiation of experimental ventilation. Mice were anesthetized and tracheotomised for ventilation. The left carotid artery was cannulated to monitor blood pressure (BP), infuse heparinised saline (0.4 ml/hr of 10 units/ml of heparin), and measure sequential blood gas analyses. Airway pressure was monitored continuously, while respiratory mechanics including respiratory resistance (Rrs) and elastance (Ers), were measured at predetermined intervals by end-inflation occlusion. Vehicle-treated or orvepitant-treated animals were ventilated with high tidal volume (33-37 ml/kg) for up to 150 minutes or until a mortality surrogate (increase of >25% peak inspiratory pressure) was reached. As a control group, vehicle-treated animals only were ventilated with low tidal volume (8-9 ml/kg) to confirm the impact of injurious ventilation. Following termination, bronchoalveolar lavage fluid (BAL) was collected for analysis and lungs were processed for flow cytometric evaluation of leukocyte numbers and expression of ICAM-1 on alveolar macrophages and epithelial cells. Data were evaluated for normality by Shapiro-Wilk test of residuals and QQ plots. Normally distributed data were evaluated by t-test for end-point analysis, or 2-way ANOVA for time courses. Non-normally distributed data were evaluated by Mann-Whitney U test. N=6-7 animals for each dataset. Bronchoalveolar lavage fluid (BAL) markers. BAL total protein concentration was measured as a marker of alveolar-epithelial barrier permeability.

[2] = system: VILI mouse model of mechanical injury to the lungs; assay: VILI mouse model: flow cytometric analyses of lung cell suspensions (leukocyte numbers, ICAM-1 surface expression); format: in vivo; conditions: male C57/BL6 mice, oral 250 mg/kg pre-treatment, high tidal volume ventilation, flow cytometry, FIG. 2
Description: as §1, with “Flow cytometric analyses. Lung cell suspensions were evaluated for quantification of neutrophils and Ly6C high inflammatory (Ly6CN) monocytes by flow cytometry. […] Activation of alveolar macrophages and type 1 and type 2 epithelial cells” for “Bronchoalveolar lavage fluid (BAL) markers. BAL total protein concentration”, “determined by assaying for surface expression” for “measured as a marker”, “ICAM-1.” for “alveolar-epithelial barrier permeability.”

[3] = system: VILI mouse model of mechanical injury to the lungs; assay: VILI mouse model: physiological variables (peak inspiratory pressure, elastance); format: in vivo, mice
Description: Orvepitant was evaluated in a VILI mouse model of mechanical injury to the lungs.
Male C57/BL6 mice were pre-treated with oral orvepitant (250 mg/kg) or vehicle control (10 ml/kg, 0.1% tween 80:0.5% hydroxypropyl methylcellulose [HPMC]), approximately 30 minutes before initiation of experimental ventilation.
Mice were anesthetized and tracheotomised for ventilation. The left carotid artery was cannulated to monitor blood pressure (BP), infuse heparinised saline (0.4 ml/hr of 10 units/ml of heparin), and measure sequential blood gas analyses. Airway pressure was monitored continuously, while respiratory mechanics including respiratory resistance (Rrs) and elastance (Ers), were measured at predetermined intervals by end-inflation occlusion. Vehicle-treated or orvepitant-treated animals were ventilated with high tidal volume (33-37 ml/kg) for up to 150 minutes or until a mortality surrogate (increase of >25% peak inspiratory pressure) was reached. As a control group, vehicle-treated animals only were ventilated with low tidal volume (8-9 ml/kg) to confirm the impact of injurious ventilation. Following termination, bronchoalveolar lavage fluid (BAL) was collected for analysis and lungs were processed for flow cytometric evaluation of leukocyte numbers and expression of ICAM-1 on alveolar macrophages and epithelial cells.
Data were evaluated for normality by Shapiro-Wilk test of residuals and QQ plots. Normally distributed data were evaluated by t-test for end-point analysis, or 2-way ANOVA for time courses. Non-normally distributed data were evaluated by Mann-Whitney U test. N=6-7 animals for each dataset.

Compound: Cc1cc(F)ccc1[C@H]1C[C@@H](N2CCN3C(=O)CC[C@H]3C2)CCN1C(=O)N(C)[C@H](C)c1cc(C(F)(F)F)cc(C(F)(F)F)c1 [orvepitant]
- Increase in BAL IL-6 [1]: significantly attenuated
- Increase in BAL MCP-1 [CCL-2] [1]: significantly attenuated
- Increase in BAL TGF-β [1]: significantly attenuated
- Increase in BAL total protein concentration (marker of alveolar-epithelial barrier permeability) [1]: significantly attenuated
- Ly6C high inflammatory monocyte numbers within lung tissue ([2]; vs vehicle): significant decrease
- Neutrophil numbers within lung tissue ([2]; vs vehicle): significant decrease
- Upregulation of ICAM-1 surface expression on alveolar macrophages [2]: significantly attenuated
- Upregulation of ICAM-1 surface expression on type 1 epithelial cells [2]: significantly attenuated
- Upregulation of ICAM-1 surface expression on type 2 epithelial cells [2]: significantly attenuated
- Peak inspiratory pressure at the start of ventilation ([3]; male C57/BL6 mice, oral 250 mg/kg approx. 30 min before ventilation, vs vehicle): identical between vehicle and orvepitant pre-treated animals
- Course of peak inspiratory pressure change over time ([3]; male C57/BL6 mice, oral 250 mg/kg pre-treatment, high tidal volume (33-37 ml/kg) ventilation up to 150 min, vs vehicle, FIG. 1): significantly different between groups
- 'End' peak inspiratory pressure (final value recorded) ([3]; male C57/BL6 mice, oral 250 mg/kg pre-treatment, high tidal volume ventilation, 150 min or mortality surrogate, vs vehicle, FIG. 1): significantly higher in vehicle-treated animals than those receiving orvepitant
- Changes in respiratory system elastance over time ([3]; male C57/BL6 mice, oral 250 mg/kg pre-treatment, high tidal volume ventilation, vs vehicle, FIG. 1): differences between groups did not quite achieve statistical significance
- Mechanical lung injury induced by mechanical ventilation (overall conclusion) ([3]; mice, oral pretreatment): substantial, significant attenuation
